From patent US5919934A, “Compounds, compositions, and methods for cancer imaging and therapy” (The George Washington University, priority 1997, dated 1999)
Read-outs that look alike come from different tables or passages of the source. One block for each compound: values may come before it.

What was measured:
sigma receptors [1] = conditions: human breast and melanoma tumor cells; cited from earlier work
sigma receptor = conditions: guinea pig brain; cited from earlier work
sigma receptors [2] = biological target: T1, sigma receptors (Homo sapiens, UniProt Q5BJF2); conditions: MCF-7 cells, Scatchard's analysis; cited from earlier work
T1 construct: MCF-7 breast tumor cells express sigma receptors; host or cells: MCF-7 cells
T1 sequence (Q5BJF2 whole entry): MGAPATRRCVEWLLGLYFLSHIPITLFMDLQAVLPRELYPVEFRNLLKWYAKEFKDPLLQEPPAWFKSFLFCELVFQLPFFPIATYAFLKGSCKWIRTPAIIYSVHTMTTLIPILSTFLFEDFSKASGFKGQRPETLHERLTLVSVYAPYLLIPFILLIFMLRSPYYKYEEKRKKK

sigma receptors [3] = type: binding, human; conditions: T47D cells; for IC50: 37° C., 1 hr, against [Tc-99m]EN6, read-out: IC50 for inhibition of binding of [Tc-99m]EN6
Method: T47D human ductal breast carcinoma cells were purchased from ATCC, Rockville, Md. and cultured in serum supplemented medium DMEM containing 10% heat inactivated fetal bovine serum (GIBCO) at 37° C. The cells were adherent and split weekly in a 1:20 ratio using trypsin/EDTA (GIBCO). The cells were then transferred to 24 well plates and allowed to be adherent and confluent (about 0.5 million cells) or the cells were grown in T75 cell culture flasks and were detached when they were confluent using trypsin/EDTA (0.025%) or scraped with a cell scraper in DMEM.
Competition binding studies in human ductal breast cancer cells (T47D) were performed as follows. T47D cells were cultured in serum supplemented medium (RPMI-1640) containing 10% heat inactivated fetal bovine serum (GIBCO) at 37° C. The cells were adherent and split weekly in a 1:20 ratio using trypsin/EDTA (GIBCO). The cells were scraped using a cell scraper from T75 culture flasks and centrifuged in a Sorvall 6000B centrifuge at a speed of 4000 rpm. The growth medium was removed and the cell pellet was resuspended in […] serum free media.
The affinity of compounds for sites labeled by [Tc-99m]EN6 in human breast cancer cells was determined by heterologous in-vitro competitive binding assays in whole cells. The following method was used: A small aliquot of the cell suspension (100 μL) was incubated with [Tc-99m]EN6 and varying concentrations to (10^-4 to 10^-12 M) of arylethylenediamines keeping a total volume 1.0 mL constant. The cells were incubated at 37° C. for 1 hr and subsequently filtered through a Brandel Cell harvester (Brandel, Gaithersburg, Md.) and washed with de-ionized cold water. The radioactivity associated with the cells on filters was counted on a Beckman (DP 5500) Gamma Counter.
The data was analyzed with the iterative nonlinear least square curve fitting program GraphPAD Inplot (Graph PAD Software, San Diego, Calif.). The Cheng-Prussoff equation was then used to convert IC50 values to apparent K1 values.

sigma-2 sites = biological target: T2, sigma-2 sites (Rattus norvegicus, UniProt Q5U3Y7); assay: Sigma-2 binding in rat liver membrane preparation against [^3 H]DTG in the presence of dextrallorphan
T2 construct: sigma-2 sites in rat liver membrane preparation; from tissue; host or cells: rat liver membranes
T2 sequence (Q5U3Y7 1-176): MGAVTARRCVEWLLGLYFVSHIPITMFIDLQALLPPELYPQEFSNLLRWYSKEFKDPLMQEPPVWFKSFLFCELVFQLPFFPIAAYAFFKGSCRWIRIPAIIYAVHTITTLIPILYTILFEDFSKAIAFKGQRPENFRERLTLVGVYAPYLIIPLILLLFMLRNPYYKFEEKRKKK

[4] = system: sigma-1 and sigma-2 receptors; assay: In-vivo blocking with BD1008 in Sprague-Dawley rats; conditions: 2 micromol BD1008 co-injected
Method: Animal biodistribution and blocking studies were performed in rats as follows. Sprague Dawley rats (200-250 g) were anesthetized with ketamine/xylazine and injected intravenously with ^99m Tc-EN6, XXIII, ([…]) in 0.2 ml saline containing up to 20% ethanol solution. At 0.5, 1, and 4 hr post-injection blood samples were drawn by cardiac puncture and the rats were sacrificed thereafter by cardiectomy while under ketamine/xylazine anesthesia. The organs of interest were then excised, blotted with tissue paper, weighed and the radioactivity counted. The % injected dose/organ was determined by comparison of the tissue radioactivity with suitably diluted, known quantity aliquots of the injected dose. […] The animals were sacrificed at 4 hr post-injection and the organs of interest were removed and handled as above.
S. B. Hellewell, et al., Rat liver and kidney contain high densities of sigma-1 and sigma-2 receptors: characterization by ligand binding and photoaffinity labeling, Eur. J. Pharmacol.--Mol. Pharmacol. Sect. 268:9-18 (1994), all of which are hereby incorporated by reference.

sigma-1 sites = biological target: T3, sigma-1 sites (Cavia porcellus, UniProt Q60492); assay: Sigma-1 binding in guinea pig brain against [^3 H]-(+)-pentazocine
T3 construct: sigma-1 sites in guinea pig brain; from tissue; host or cells: guinea pig brain
T3 sequence (Q60492 whole entry): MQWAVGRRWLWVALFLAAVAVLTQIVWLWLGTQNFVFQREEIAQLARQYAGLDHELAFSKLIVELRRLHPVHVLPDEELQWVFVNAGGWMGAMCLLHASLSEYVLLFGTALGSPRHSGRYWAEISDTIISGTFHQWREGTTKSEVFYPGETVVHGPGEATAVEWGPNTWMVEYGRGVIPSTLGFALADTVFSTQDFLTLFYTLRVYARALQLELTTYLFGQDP

[5] = system: non-melanoma cells in the liver and lung; conditions: cited from earlier work

SMILES: CN(CCc1ccc([125I])cc1)CCN1CCCCC1 [4-[^125 I]PEMP, [^125 I]N-[2-(4-iodophenyl)ethyl]-N-methyl-2-(1-piperidinyl)ethylamine]
specific binding to the sigma receptors (sigma receptors [1]): very high specific binding
inhibition binding isotherms (sigma receptor): consistent with sigma receptor pharmacology

SMILES: O=C(NC1CCN(Cc2ccccc2)CC1)c1ccc([125I])cc1 [4-[^125 I]-4-(N-benzylpiperidin-4-yl)-4-iodobenzamide]
receptors per cell (sigma receptors [2]): approximately a million

inhibition of [Tc-99m]EN6 binding (sigma receptors [3]): dose-dependent inhibition of binding
IC50 (sigma receptors [3]): 47 ± 2 nM
Ki (sigma-2 sites; rat liver membrane, against [^3 H]DTG in the presence of dextrallorphan, read-out: Ki for sigma-2 sites): 8.1 ± 2.2 nM
SMILES: CN(CCc1ccc(Cl)c(Cl)c1)CCN1CCCC1 [BD1008]
inhibition of binding of ^99m Tc-complex in the kidneys ([4]; kidneys, 4 hr post-i.v. injection): about 60%
reduction of radioactivity in liver ([4]; liver, 4 hr post-injection): 34%
reduction of radioactivity in lungs ([4]; lungs, 4 hr post-injection): 48%

SMILES: CN(CCc1ccc(I)cc1)CCN1CCCCC1 [IPEMP]
inhibition of [Tc-99m]EN6 binding (sigma receptors [3]): dose-dependent inhibition of binding
IC50 (sigma receptors [3]): 59 ± 5 nM
Ki (sigma-1 sites): 0.82 ± 0.13 nM
Ki (sigma-2 sites): 15.2 ± 2.35 nM

SMILES: CCN(CC)CCNC(=O)c1ccc(I)cc1 [IDAB, N-(diethylaminoethyl)4-iodobenzamide]
uptake by non-melanoma cells [5]: taken up in high concentrations
